Active and inactive are the calls of the source. The rule behind the calls is not given here.
What was measured:
Mus musculus [1] = experiment: Antinociceptive activity in ip dosed Swiss mouse assessed as reduction of acetic acid-induced abdominal constructions administered 30 mins before acetic acid challenge measured for 20 mins; assay type: functional; conditions: Abdomen, read-out: ID50 (the source's name)
Mus musculus [2] = experiment: Antinociceptive activity in Swiss mouse assessed as reduction of acetic acid-induced abdominal constructions at 1 to 10 mg/kg, ip administered 30 mins before acetic acid challenge measured after 20 mins relative to control; assay type: functional, Abdomen; conditions: dose mg/kg 1-10; route intraperitoneal
Mus musculus [3] = experiment: Antinociceptive activity in ip dosed Swiss mouse assessed as reduction of formalin-induced neurogenic pain administered 60 mins before formalin challenge measured during 0 to 5 mins; assay type: functional
Mus musculus [4] = experiment: Antinociceptive activity in ip dosed Swiss mouse assessed as reduction of formalin-induced inflammatory pain administered 60 mins before formalin challenge measured during 15 to 30 mins; assay type: functional; conditions: read-out: ID50 (the source's name)
Mus musculus [5] = experiment: Antinociceptive activity in Swiss mouse assessed as reduction of formalin-induced inflammatory pain at 1 to 10 mg/kg, ip administered 60 mins before formalin challenge measured during 15 to 30 mins relative to control; assay type: functional; conditions: route intraperitoneal
Mus musculus [6] = experiment: Antinociceptive activity in Swiss mouse assessed as reduction of formalin-induced neurogenic pain at 1 to 10 mg/kg, ip administered 60 mins before formalin challenge measured during 0 to 5 mins relative to control; assay type: functional; conditions: route intraperitoneal

| Structure (SMILES) | ED50 (Mus musculus [1]) | inhibition (INH) (Mus musculus [2]) | Activity (Mus musculus [3]) | ED50 (Mus musculus [4]) | inhibition (INH) (Mus musculus [5]) | ED50 (Mus musculus [3]; read-out: ID50 (the source's name)) | inhibition (INH) (Mus musculus [6]) |
| --- | --- | --- | --- | --- | --- | --- | --- |
| CC(=O)Oc1ccccc1C(=O)O [ASPIRIN] | 133 µmol/kg | 83% | inactive | 123 µmol/kg | 88% | – | – |
| CC(=O)Nc1ccc(O)cc1 [ACETAMINOPHEN] | 125 µmol/kg | 88% | inactive | 120 µmol/kg | 85% | – | – |
| C[C@@H]1CC[C@]2(C(=O)O[C@@H]3O[C@H](CO)[C@@H](O)[C@H](O)[C@H]3O)CC[C@]3(C)C(=CC[C@@H]4[C@@]5(C)C[C@@H](O)[C@H](O)[C@@](C)(CO)[C@@H]5CC[C@]43C)[C@@H]2[C@]1(C)O [NIGAICHIGOSIDE F1] | 4.6 µmol/kg | 67.6% | – | 4.1 µmol/kg | 94% | 3.9 µmol/kg | 70.4% |
